# Laboratory results as given in patent US20230026259A1, “CA2 COMPOSITIONS AND METHODS FOR TUNABLE REGULATION” (Obsidian Therapeutics, Inc., priority 2019, published 2023).
# Experiments:
# Type in all cases: cell-based
# [1] = system: human primary T cells; experiment: Expression of IL15 chimeric constructs by flow cytometry (percent IL15 positive cells); details: for percentage of IL15 positive cells: human primary T cells, day 6, no ligand stated
# Excerpt: In vitro activity of IL15 chimeric constructs OT-002019 ((Met; CD34 (aa 1-32 of WT, M1G, S32A); IL15 (30-162 of WT); Linker ((GS)15); CD8a Hinge and Transmembrane Domain; Linker (GS); stop), amino acid SEQ ID NO: 210876, nucleic acid SEQ ID NO: 210877) and OT-002090 ((Ig Kappa light chain leader; IL15 (49-162 of WT); Linker ((GS)15); B7-1 Hinge, Transmembrane Domain and Tail; Linker (GS); stop), amino acid SEQ ID NO: 210878, nucleic acid SEQ ID NO: 210879) and CA2 regulated IL15 chimeric construct (OT-002094) were tested in human primary T cells. Human primary T cells were transduced with lentivirus 24 hours after activation with CD3/CD28 beads. Cells were expanded for 10 days. […] The percentage of IL15 positive cells obtained for each treatment group is as follows (a) OT-002019: 82.3% (b) OT-002090: 43.6% (c) OT-002094 with DMSO: 0.7% (d) OT-002094 with 10 μM Acz: 27.9% and (e) untransduced (UT): 0.3%.
# (§1) To test IL15-dependent expansion, beads were removed on day 10 and cells were washed. […] The T cell numbers (Table 30) and the change in CD4/CD8 ratio (Table 31) were determined by flow cytometry.
# [2] = system: human primary T cells; experiment: IL15-dependent expansion: T cell numbers and CD4/CD8 ratio by flow cytometry
# Protocol: as §1
# [3] = system: NIH3T3 cells; experiment: Destabilization mutant screening of human CA2 linked to GFP, ligand response by FACS (Valdecoxib, Celecoxib, Acetazolamide)
# Protocol: To identify destabilizing mutations of human CA2 that are stabilized upon ligand binding to CA2, two rounds of mutant screening were performed, using a lentivirus CA2 mutant library provided by Genscript (China). These methods were used to generate a library of mutant polypeptides using mutagenesis primers and error prone PCR. Lentiviral vectors expressing the template, wild-type human CA2 operably linked to GFP(OT-001986) was also provided by Genscript along with the CA2 mutant library. The library was packaged into lentivirus, transduced into NIH3T3 cells at a multiplicity of infection (MOI) of approximately 0.3 and select stable cell pools were derived by selecting with selection marker puromycin.
# To identify cell pools containing destabilizing mutants of CA2 that are stabilizing when CA2 is bound to its corresponding ligand, cells were sorted using FACS. In the initial round, the bottom 15% of population that was GFP negative in the absence of ligand was selected. Cells were expanded and then treated with 10 μM Celecoxib for 24 hours and harvested for cell sorting. The top 11% GFP positive cells which were also responsive to ligand treatment compared to untreated were collected. Celecoxib was removed from the cultures and replaced with DMSO. […] Genomic DNA was isolated and amplified CA2 mutants were reintroduced to the lentiviral vectors where CA2 was operably linked to GFP. The constructs were transduced into NIH3T3 cells with lentivirus vectors for each clone. The cells were treated with 10 μM Valdecoxib or 10 μM Celecoxib for 24 hours and analyzed by FACS. […] In Table 25, the Construct ID (OT-XXXXXX) refers to the construct which includes the referenced CA2 mutant and the Library ID (LibCXXXXXX) refers to the CA2 mutant itself.
# The response of NIH3T3 cells to varying doses of Valdecoxib or Celecoxib for 24 hours was measured and analyzed by FACS.
# Clones treated with different ligands were compared to examine the behavior of each mutant with the ligands.
# [4] = system: NIH3T3 cells; experiment: Immunoblotting of cell lysates for GFP after ligand treatment; details: NIH3T3 cells, 0.3, 1, 3, 10 or 30 μM Acetazolamide, 24 hours
# Protocol: The protein expression in the presence of ligand was measured by immunoblotting the cell lysates for GFP.
# The protein expression in the presence of ligand was measured by immunoblotting cell lysates for GFP.
# [5] = NIH3T3, 10 μM Celecoxib vs DMSO
# [6] = NIH3T3, 10 μM Valdecoxib vs DMSO
# [7] = NIH3T3, Celecoxib μM (concentration not given)
# [8] = NIH3T3, Valdecoxib μM (concentration not given)
# [9] = day 0 in culture, untransduced T cells + exogenous IL15 1 ng/ml
# [10] = day 3 in culture, untransduced T cells + exogenous IL15 1 ng/ml
# [11] = day 7 in culture, untransduced T cells + exogenous IL15 1 ng/ml
# [12] = day 10 in culture, untransduced T cells + exogenous IL15 1 ng/ml
substance,measurement,setting,value
"(Ig Kappa light chain leader; IL15 (49-162 of WT); Linker ((GS)15); B7-1 Hinge, Transmembrane Domain and Tail; Linker (GS); stop) [OT-002090]",Percent of cells IL15 positive,"[1]; day 0 in culture, media alone",30%
same,Percent of cells IL15 positive,"[1]; day 3 in culture, media alone",40%
same,Percent of cells IL15 positive,"[1]; day 7 in culture, media alone",38%
same,Percent of cells IL15 positive,"[1]; day 10 in culture, media alone",16%
same,percentage of IL15 positive cells,[1],43.6%
same,CD4/CD8 Ratio,"[2]; day 0 in culture, media alone",3.79
same,T Cell Numbers,"[2]; day 0 in culture, media alone",1.0E+06
same,CD4/CD8 Ratio,"[2]; day 3 in culture, media alone",0.66
same,T Cell Numbers,"[2]; day 3 in culture, media alone",1.3E+06
same,CD4/CD8 Ratio,"[2]; day 7 in culture, media alone",0.09
same,T Cell Numbers,"[2]; day 7 in culture, media alone",4.1E+06
same,CD4/CD8 Ratio,"[2]; day 10 in culture, media alone",0.04
same,T Cell Numbers,"[2]; day 10 in culture, media alone",1.0E+07
"(Met; CD34 (aa 1-32 of WT, M1G, S32A); IL15 (30-162 of WT); Linker ((GS)15); CD8a Hinge and Transmembrane Domain; Linker (GS); stop) [OT-002019]",Percent of cells IL15 positive,"[1]; day 0 in culture, 3 uM ACZ",75%
same,Percent of cells IL15 positive,"[1]; day 0 in culture, 10 uM ACZ",75%
same,Percent of cells IL15 positive,"[1]; day 0 in culture, media alone",75%
same,Percent of cells IL15 positive,"[1]; day 3 in culture, 3 uM ACZ",82%
same,Percent of cells IL15 positive,"[1]; day 3 in culture, 10 uM ACZ",82%
same,Percent of cells IL15 positive,"[1]; day 3 in culture, media alone",82%
same,Percent of cells IL15 positive,"[1]; day 7 in culture, 3 uM ACZ",84%
same,Percent of cells IL15 positive,"[1]; day 7 in culture, 10 uM ACZ",85%
same,Percent of cells IL15 positive,"[1]; day 7 in culture, media alone",84%
same,Percent of cells IL15 positive,"[1]; day 10 in culture, 3 uM ACZ",78%
same,Percent of cells IL15 positive,"[1]; day 10 in culture, 10 uM ACZ",79%
same,Percent of cells IL15 positive,"[1]; day 10 in culture, media alone",76%
same,percentage of IL15 positive cells,[1],82.3%
same,CD4/CD8 Ratio,"[2]; day 0 in culture, 3 uM ACZ",2.51
same,T Cell Numbers,"[2]; day 0 in culture, 3 uM ACZ",1.0E+06
same,CD4/CD8 Ratio,"[2]; day 0 in culture, 10 uM ACZ",2.51
same,T Cell Numbers,"[2]; day 0 in culture, 10 uM ACZ",1.0E+06
same,CD4/CD8 Ratio,"[2]; day 0 in culture, media alone",2.51
same,T Cell Numbers,"[2]; day 0 in culture, media alone",1.0E+06
same,CD4/CD8 Ratio,"[2]; day 3 in culture, 3 uM ACZ",0.46
same,T Cell Numbers,"[2]; day 3 in culture, 3 uM ACZ",1.7E+06
same,CD4/CD8 Ratio,"[2]; day 3 in culture, 10 uM ACZ",0.47
same,T Cell Numbers,"[2]; day 3 in culture, 10 uM ACZ",1.7E+06
same,CD4/CD8 Ratio,"[2]; day 3 in culture, media alone",0.45
same,T Cell Numbers,"[2]; day 3 in culture, media alone",2.0E+06
same,CD4/CD8 Ratio,"[2]; day 7 in culture, 3 uM ACZ",0.06
same,T Cell Numbers,"[2]; day 7 in culture, 3 uM ACZ",5.7E+06
same,CD4/CD8 Ratio,"[2]; day 7 in culture, 10 uM ACZ",0.07
same,T Cell Numbers,"[2]; day 7 in culture, 10 uM ACZ",5.6E+06
same,CD4/CD8 Ratio,"[2]; day 7 in culture, media alone",0.06
same,T Cell Numbers,"[2]; day 7 in culture, media alone",6.7E+06
same,CD4/CD8 Ratio,"[2]; day 10 in culture, 3 uM ACZ",0.02
same,T Cell Numbers,"[2]; day 10 in culture, 3 uM ACZ",1.7E+07
same,CD4/CD8 Ratio,"[2]; day 10 in culture, 10 uM ACZ",0.03
same,T Cell Numbers,"[2]; day 10 in culture, 10 uM ACZ",1.6E+07
same,CD4/CD8 Ratio,"[2]; day 10 in culture, media alone",0.02
same,T Cell Numbers,"[2]; day 10 in culture, media alone",2.1E+07
"CA2 (aa 2-260 of WT, G12R) [LibC000211]",Median PE,"[3]; NIH3T3, 10 μM Celecoxib",20800
same,SR (stabilization ratio),[3]; [5],1.6
same,Median PE,"[3]; NIH3T3, 10 μM Valdecoxib",19800
same,SR (stabilization ratio),[3]; [6],1.52
same,"MFI, comparative analysis, normalized to parental day 1",[3]; [7],16550.54
same,"MFI, comparative analysis","[3]; NIH3T3, DMSO",10344.09
same,Median PE,"[3]; NIH3T3, DMSO",13000
same,SR (stabilization ratio),"[3]; NIH3T3, DMSO (reference)",1
same,"MFI, comparative analysis, normalized to parental day 1",[3]; [8],15754.84
"CA2 (aa 2-260 of WT, H17D, P30S, G81V, K132R, S151I, A152D, A173G, W191*) [LibC000191]",Median PE,"[3]; NIH3T3, 10 μM Celecoxib",173
same,SR (stabilization ratio),[3]; [5],1.08
same,Median PE,"[3]; NIH3T3, 10 μM Valdecoxib",177
same,SR (stabilization ratio),[3]; [6],1.11
same,Median PE,"[3]; NIH3T3, DMSO",160
same,SR (stabilization ratio),"[3]; NIH3T3, DMSO (reference)",1
"CA2 (aa 2-260 of WT, I59N, G102R) [LibC000184]","MFI, comparative analysis","[3]; NIH3T3, Acetazolamide 10 μM",9295
same,"MFI, comparative analysis","[3]; NIH3T3, Acetazolamide 30 μM",10900
same,"MFI, comparative analysis, normalized to parental day 1",[3]; [7],4660.217
same,"MFI, comparative analysis","[3]; NIH3T3, DMSO",380
same,"MFI, comparative analysis, normalized to parental day 1",[3]; [8],3478.892
same,"GFP protein expression by immunoblot, Acetazolamide",[4],stabilization of GFP with increasing ligand doses
"CA2 (aa 2-260 of WT, L47R) [LibC000220]",Median PE,"[3]; NIH3T3, 10 μM Celecoxib",384
same,SR (stabilization ratio),[3]; [5],1.2
same,Median PE,"[3]; NIH3T3, 10 μM Valdecoxib",408
same,SR (stabilization ratio),[3]; [6],1.31
same,Median PE,"[3]; NIH3T3, DMSO",311
same,SR (stabilization ratio),"[3]; NIH3T3, DMSO (reference)",1
"CA2 (aa 2-260 of WT, N61R, K80M, K212N, N231T, L250P) [LibC000198]",Median PE,"[3]; NIH3T3, 10 μM Celecoxib",535
same,SR (stabilization ratio),[3]; [5],1.95
same,Median PE,"[3]; NIH3T3, 10 μM Valdecoxib",552
same,SR (stabilization ratio),[3]; [6],2
same,Median PE,"[3]; NIH3T3, DMSO",275
same,SR (stabilization ratio),"[3]; NIH3T3, DMSO (reference)",1
"CA2 (aa 2-260 of WT, S73F) [LibC000212]",Median PE,"[3]; NIH3T3, 10 μM Celecoxib",30700
same,SR (stabilization ratio),[3]; [5],1.02
same,Median PE,"[3]; NIH3T3, 10 μM Valdecoxib",30700
same,SR (stabilization ratio),[3]; [6],1.02
same,Median PE,"[3]; NIH3T3, DMSO",30100
same,SR (stabilization ratio),"[3]; NIH3T3, DMSO (reference)",1
"CA2 (aa 2-260 of WT, T35I, Y114H, P154L, D161V, P200A, F225L, E233D, W244*) [LibC000188]",Median PE,"[3]; NIH3T3, 10 μM Celecoxib",225
same,SR (stabilization ratio),[3]; [5],1.09
same,Median PE,"[3]; NIH3T3, 10 μM Valdecoxib",228
same,SR (stabilization ratio),[3]; [6],1.11
same,Median PE,"[3]; NIH3T3, DMSO",206
same,SR (stabilization ratio),"[3]; NIH3T3, DMSO (reference)",1
IL15,Percent of cells IL15 positive,[1]; [9],0%
same,Percent of cells IL15 positive,[1]; [10],1%
same,Percent of cells IL15 positive,[1]; [11],0%
same,Percent of cells IL15 positive,[1]; [12],1%
same,CD4/CD8 Ratio,[2]; [9],5.64
same,T Cell Numbers,[2]; [9],1.0E+06
same,CD4/CD8 Ratio,[2]; [10],2.57
same,T Cell Numbers,[2]; [10],3.2E+06
same,CD4/CD8 Ratio,[2]; [11],0.64
same,T Cell Numbers,[2]; [11],5.4E+06
same,CD4/CD8 Ratio,[2]; [12],0.28
same,T Cell Numbers,[2]; [12],1.2E+07
